Tests used:
Aedes albopictus = assay: Mosquito repellent testing on human forearm in test cage (ASTM E951-83); format: in vivo; conditions: text summary of Table 4
Protocol: The mosquitos used in this study were Aedes albopictus. Mosquito repellent activity of the tested samples (listed in Table 2) was assessed by using the test cage as described by Songkro et al (2012), in the American Society for Testing and Materials (ASTM) standard […]-83 Laboratory testing of non-commercial mosquito repellent composition on the skin. The sample was tested on human subject. The same volunteers tested all the formulations under laboratory conditions. According to the method described by Coucci and Müller (2018), 50 adult female Aedes albopictus mosquitoes were transferred into the mosquito proof enclosed cage with the help of aspirator tube. The compositions to be tested were applied to the forearm ([…]) of the volunteers. The applied hand was introduced into the cage and the number of bites was recorded. After every 30 minutes the volunteer hands were subjected to the cage for 5 minutes and the numbers of mosquito bites were noted. Same procedure was implemented for control. Control study is done by placing the forearm in cage without application of tested sample. Before starting each replication, the mosquitoes' propensity to bite is assessed by inserting an untreated forearm into the cage. […] According to this procedure different compositions were tested by applying on the forearm with fresh mosquitoes every time of testing.

[1] = test system: Ixodes larvae, nymph forms and adults (female and male); assay: Field testing, treated tick sheet dragging; format: in vivo; conditions: treated cotton sheet dragged 35 x 10 m; 5% vanillin in all FA and HFA solutions; vs commercial product Punkkiassa (19% IR3535)
Source text: Tick-dragging method was adopted to study the effectiveness of the product in repelling ticks in their natural habitat in Ruissalo, Turku. A square of 1 m^2 cotton sheet was divided in three parallel divisions and the borders were marked with pencil: 100*45 cm division on both sides (A and B) and a 100*10 cm neutral strip in the middle (N). Both A and B were both treated with a solution from a solution test pair (or left untreated for control drags) from that side of the sheet that would face the ground during dragging. The neutral zone was always left untreated. The evenly sprayed solution was let settle on the sheet for ˜15 minutes before the first drag. The sheet was dragged for 10 m with the treated side down with moderate pace in an even, tick-friendly biotope. After every 10 meter drag, the treated side was inspected for Ixodes larvae, nymph forms and adults (female and male). Number of individuals in every (4) form per department (A, B or N) was counted. Every test pair/sheet was dragged 35 times during the same day between 08:00 AM and 02:00 PM. No new solution was added to the sheet during the day. The time of start for every draw was checked. We tested different product types for field studies like FA (5, 10, 20%) and HFA (10 & 20%) and also included a commercial tick repellent (Punkkiassa) as a positive control. […]

[2] = test system: Ixodes Ricinus (male, female and nymphs); assay: Tick repellent testing (treated cylinder/stick and human volunteer's forearm); format: in vivo; conditions: stick test, FIG. 4
[3] = test system: nymphs and the female ticks of the Ixodus ricinu species; assay: Tick repellency of IR3535 (test results received from Entostudio laboratory, Italy); conditions: in vivo

Which results are given for `CC(=O)CC/C=C(\C)CC/C=C(\C)CCC=C(C)C` [FA, Farnesyl acetone]?
mosquito repellent activity (in words) (Aedes albopictus): efficient repellent activity; repellency of nymphs in field test (FIG. 5) [1]: repelled nymphs very effectively compared to the commercial product

For `C=C1CC[C@H]2O[C@]2(C)CC[C@@H]2[C@@H]1CC2(C)C` [Caryophyllene oxide], which “tick repellent activity (in words)” value [2] is on record?
The value was “not very effective”.

For `CCCCN(CCC(=O)OCC)C(C)=O` [IR3535, 3-[N-butyl-N-acetyl]-aminopropionic acid, ethyl ester], which “repellency of nymphs and female ticks” value [3] is on record?
Its value is “does not repel the nymphs and the female ticks”.

`CC(=O)CCCC(C)CCCC(C)CCCC(C)C` (stereo not drawn) [HFA, 6,10,14-trimethyl-pentadecanone] was tested. Which “mosquito repellent activity (in words)” value (Aedes albopictus) did it give?
The value was “efficient repellent activity”.

And the “repellency of nymphs in field test (FIG. 5)” value [1]?
The value was “repelled nymphs very effectively compared to the commercial product”.

Reference: patent US20240284918A1, “INSECT REPELLENT COMPOSITION AND A METHOD OF REPELLING INSECTS” (Åbo Akademi, priority 2021, published 2024)
